Reference: PubChem BioAssay AID248 (DTP/NCI, 2004)
“And” between values parts separate entries of the source, which are not always exact repeats. Equal entries are not always repeated. Inconclusive results and toxic doses are left out. No stated cut-off is given here; in the data, active means T/C of 150% or more; inactive means T/C below 125%. Square brackets hold non-standard residues; d marks the D form. Peptide text beside a SMILES is read from it. * marks the point of attachment. ξ: configuration not given here. Octanoyl = CCCCCCCC(=O)*; OBn = c1ccc(CO*)cc1; ξP = O=C(O)C1CCCN1

System: L1210 leukemia ip in BDF1 mice, survival T/C
Assay: NCI In Vivo Anticancer Drug Screen. Data for tumor model L1210 Leukemia (intraperitoneal) in B6D2F1 (BDF1) mice
Conditions: endpoint: mean survival time, higher = longer survival
In short: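 Read-out is survival time, reported as the treated-group measurement over the vehicle-control measurement.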

[1] = dose: 100.0 mg/kg/injection, schedule: Q04DX003 (ip), vehicle: Klucel (hydroxypropylcellulose) (HPC)
[2] = dose: 200.0 mg/kg/injection, schedule: Q04DX003 (ip), vehicle: Klucel (hydroxypropylcellulose) (HPC)
[3] = dose: 400.0 mg/kg/injection, schedule: Q04DX003 (ip), vehicle: Klucel (hydroxypropylcellulose) (HPC)
[4] = dose: 100.0 mg/kg/injection, schedule: Q01DX001 (ip), vehicle: other
[5] = dose: 200.0 mg/kg/injection, schedule: Q01DX001 (ip), vehicle: other
[6] = dose: 400.0 mg/kg/injection, schedule: Q01DX001 (ip), vehicle: other
[7] = dose: 100.0 mg/kg/injection, schedule: Q04DX002 (ip), vehicle: saline with Tween-80
[8] = dose: 200.0 mg/kg/injection, schedule: Q04DX002 (ip), vehicle: saline with Tween-80
[9] = dose: 400.0 mg/kg/injection, schedule: Q04DX002 (ip), vehicle: saline with Tween-80
[10] = dose: 100.0 mg/kg/injection, schedule: Q01DX009 (ip), vehicle: Klucel (hydroxypropylcellulose) (HPC)
[11] = dose: 100.0 mg/kg/injection, schedule: Q04DX003 (ip), vehicle: saline
[12] = dose: 200.0 mg/kg/injection, schedule: Q04DX003 (ip), vehicle: saline
[13] = dose: 100.0 mg/kg/injection, schedule: Q01DX001 (ip), vehicle: saline
[14] = dose: 200.0 mg/kg/injection, schedule: Q01DX001 (ip), vehicle: saline
[15] = dose: 400.0 mg/kg/injection, schedule: Q01DX001 (ip), vehicle: saline
[16] = dose: 75.0 mg/kg/injection, schedule: Q01DX001 (ip), vehicle: other
[17] = dose: 150.0 mg/kg/injection, schedule: Q01DX001 (ip), vehicle: other
[18] = dose: 400.0 mg/kg/injection, schedule: Q04DX003 (ip), vehicle: saline
[19] = dose: 50.0 mg/kg/injection, schedule: Q01DX001 (ip), vehicle: saline
[20] = dose: 200.0 mg/kg/injection, schedule: Q01DX009 (ip), vehicle: Klucel (hydroxypropylcellulose) (HPC)
[21] = dose: 3.12 mg/kg/injection, schedule: Q04DX002 (ip), vehicle: saline
[22] = dose: 100.0 mg/kg/injection, schedule: Q01DX009 (ip), vehicle: saline
[23] = dose: 200.0 mg/kg/injection, schedule: Q01DX009 (ip), vehicle: saline
[24] = dose: 400.0 mg/kg/injection, schedule: Q01DX009 (ip), vehicle: saline

Measured: T/C

CC(C)C(C#N)(CCCCN1CCOCC1)c1cccc2ccccc12 (stereo not drawn)
inactive: dose: 25.0 mg/kg/injection, schedule: Q04DX003 (ip), vehicle: Klucel (hydroxypropylcellulose) (HPC) 93 % of control | dose: 50.0 mg/kg/injection, schedule: Q04DX003 (ip), vehicle: Klucel (hydroxypropylcellulose) (HPC) 103 % of control | [1] 92 % of control

COc1cc(/C=N/NC(=O)c2cc(OC)c(OC)c(OC)c2)ccc1O
inactive: dose: 100.0 mg/kg/injection, schedule: Q01DX009 (ip), vehicle: saline with Tween-80 93 % of control | dose: 200.0 mg/kg/injection, schedule: Q01DX009 (ip), vehicle: saline with Tween-80 93 % of control | dose: 400.0 mg/kg/injection, schedule: Q01DX009 (ip), vehicle: saline with Tween-80 90 % of control

O=C(O)C(Br)C(Br)C(=O)O (stereo not drawn)
inactive: dose: 100.0 mg/kg/injection, schedule: Q04DX002 (ip), vehicle: saline 92 % of control | [1] 97 % of control | dose: 200.0 mg/kg/injection, schedule: Q04DX002 (ip), vehicle: saline 100 % of control | [2] 103 % of control | [3] 95 % of control

COc1cc(C)c2ccc3ccccc3c2n1
inactive: [4] 93 % of control | [5] 95 % of control | [6] 97 % of control

Cc1ccccc1NC(=O)CC#N
inactive: [7] 90 % of control | [8] 101 % of control | [9] 94 % of control

C/C=C/CC1C(=O)N(c2ccccc2)N(c2ccccc2)C1=O
inactive: dose: 25.0 mg/kg/injection, schedule: Q01DX009 (ip), vehicle: Klucel (hydroxypropylcellulose) (HPC) 106 % of control | dose: 50.0 mg/kg/injection, schedule: Q01DX009 (ip), vehicle: Klucel (hydroxypropylcellulose) (HPC) 95 % of control | [10] 97 % of control

CCCCCCCC(=O)N1CCCC1C(=O)NCC(=O)NCC(=O)OCc1ccccc1 (stereo not drawn) (Octanoyl-[ξP]-Gly-Gly-OBn)
inactive: dose: 100.0 mg/kg/injection, schedule: Q04DX002 (ip), vehicle: Klucel (hydroxypropylcellulose) (HPC) 94 % of control | dose: 200.0 mg/kg/injection, schedule: Q04DX002 (ip), vehicle: Klucel (hydroxypropylcellulose) (HPC) 86 % of control | dose: 400.0 mg/kg/injection, schedule: Q04DX002 (ip), vehicle: Klucel (hydroxypropylcellulose) (HPC) 105 % of control

O=c1[nH]c(=O)ss1
inactive: [11] 100 % of control | [12] 94 % of control

CCCCNC(=O)C1CC2c3c(Br)ccc4c3C(CC2N(C)C1)CN4C(C)=O (stereo not drawn)
inactive: dose: 20.0 mg/kg/injection, schedule: Q01DX001 (ip), vehicle: Klucel (hydroxypropylcellulose) (HPC) 98 % of control

CC(=O)OC1COC(n2cnc3c(=S)nc[nH]c32)C(OC(C)=O)C1OC(C)=O (stereo not drawn)
inactive: [4] 107 % of control | [13] 94 % of control | [5] 90 % of control | [14] 93 % of control | [6] 96 % of control | [15] 96 % of control

O=CNc1c(Cl)c(Cl)c2c(c1Cl)Cc1cc(Cl)ccc1-2
inactive: dose: 50.0 mg/kg/injection, schedule: Q01DX001 (ip), vehicle: carboxymethylcellulose (CMC) 94 % of control | dose: 50.0 mg/kg/injection, schedule: Q04DX003 (ip), vehicle: acetone 97 % of control | dose: 75.0 mg/kg/injection, schedule: Q01DX009 (ip), vehicle: saline with Tween-80 108 % of control | dose: 100.0 mg/kg/injection, schedule: Q01DX001 (ip), vehicle: carboxymethylcellulose (CMC) 91 % of control | [13] 91 % of control | dose: 100.0 mg/kg/injection, schedule: Q04DX003 (ip), vehicle: acetone 105 % of control | dose: 150.0 mg/kg/injection, schedule: Q01DX009 (ip), vehicle: saline with Tween-80 109 % of control | dose: 200.0 mg/kg/injection, schedule: Q01DX001 (ip), vehicle: carboxymethylcellulose (CMC) 102 % of control | [14] 91 % of control | dose: 200.0 mg/kg/injection, schedule: Q04DX003 (ip), vehicle: acetone 94 % of control

O=C(O)C(=O)c1ccccc1
inactive: [11] 92 % of control | [12] 91 % of control

O=C(O)C(Cl)(c1ccccc1)c1ccccc1
inactive: [16] 94 % of control | [17] 101 % of control | dose: 300.0 mg/kg/injection, schedule: Q01DX001 (ip), vehicle: other 100 % of control

CS(=O)(=O)c1ccc(F)cc1
inactive: [1] 103 % of control | [2] 103 % of control | [3] 97 % of control

Cc1nc(N)[nH]c(=O)c1CCC(=O)O
inactive: [11] 102 % of control | [18] 107 % of control

Cc1[nH]c2ccccc2c1C(=O)Cc1ccc(Cl)c(Cl)c1
inactive: [19] 101 % of control | [13] 98 % of control | [14] 98 % of control | [15] 101 % of control

O=C1c2cccc3cccc(c23)C1(Br)Br
inactive: [16] 101 % of control | [17] 104 % of control

CN(C)Cc1cc(Cl)cc(Cc2cc(Cl)cc(CN(C)C)c2O)c1O
inactive: [13] 100 % of control | [11] 93 % of control | [14] 94 % of control | [12] 88 % of control | [15] 96 % of control | [18] 95 % of control

CC1=CC(OC2CCCCO2)C2CC1C2(C)C (stereo not drawn)
inactive: [10] 97 % of control | [1] 98 % of control | [20] 103 % of control | [2] 95 % of control | dose: 400.0 mg/kg/injection, schedule: Q01DX009 (ip), vehicle: Klucel (hydroxypropylcellulose) (HPC) 92 % of control | [3] 93 % of control

CCC(=O)c1ccc(OC)cc1
inactive: [7] 91 % of control | [8] 91 % of control | [9] 91 % of control

CCCCCCCCCCCCCC[As](=O)(O)CCCCCCCCCCCCCC
inactive: [19] 103 % of control | [13] 101 % of control | [14] 101 % of control | [15] 95 % of control

CC[N+](C)(CC)CCNC(=O)Nc1ccc(C)c(NC(=O)NCC[N+](C)(CC)CC)c1
inactive: dose: 1.56 mg/kg/injection, schedule: Q01DX009 (ip), vehicle: saline 97 % of control | dose: 3.12 mg/kg/injection, schedule: Q01DX009 (ip), vehicle: saline 95 % of control | [21] 90 % of control

CSc1ccc(NC(=O)Nc2ccc(F)cc2)cc1
inactive: [10] 96 % of control | [20] 97 % of control

O=C(Nc1ccc(Br)cc1)c1cc(Br)cc(Br)c1O
inactive: dose: 1.56 mg/kg/injection, schedule: Q04DX002 (ip), vehicle: saline 100 % of control | [21] 100 % of control | dose: 6.25 mg/kg/injection, schedule: Q04DX002 (ip), vehicle: saline 97 % of control | dose: 12.5 mg/kg/injection, schedule: Q04DX002 (ip), vehicle: saline 103 % of control and 107 % of control | dose: 25.0 mg/kg/injection, schedule: Q04DX002 (ip), vehicle: saline 104 % of control and 89 % of control

CCN(CC)CCOC(=O)c1cccnc1
inactive: dose: 25.0 mg/kg/injection, schedule: Q01DX009 (ip), vehicle: saline 96 % of control | dose: 25.0 mg/kg/injection, schedule: Q04DX003 (ip), vehicle: saline 103 % of control | dose: 50.0 mg/kg/injection, schedule: Q01DX009 (ip), vehicle: saline 94 % of control | dose: 50.0 mg/kg/injection, schedule: Q04DX003 (ip), vehicle: saline 97 % of control | [22] 100 % of control | [11] 97 % of control | [23] 86 % of control | [12] 95 % of control | [24] 107 % of control | [18] 101 % of control

C=CC[Si](Cl)(Cl)Cl
inactive: [19] 93 % of control | [13] 98 % of control

CCNC(C)(C)C(Cl)c1cccs1 (stereo not drawn)
inactive: [22] 101 % of control | [11] 96 % of control | [23] 100 % of control | [12] 93 % of control

CCN(CC)c1ccc(/C=N/Nc2nnc(N/N=C/c3ccc(N(CC)CC)cc3)c3ccccc23)cc1
inactive: [19] 94 % of control | [13] 92 % of control | [14] 105 % of control

COC1CCS(=O)(=O)C1 (stereo not drawn)
inactive: [13] 95 % of control | [22] 97 % of control | [14] 94 % of control | [23] 98 % of control | [15] 94 % of control | [24] 100 % of control

CC(=O)c1ccc[n+](Cc2ccc([N+](=O)[O-])cc2)c1
inactive: dose: 100.0 mg/kg/injection, schedule: Q04DX003 (ip), vehicle: saline sonified 98 % of control
